In ChEMBL document CHEMBL3507680, “University of Dundee, Gates Library screen for HepG2 cell viability”:

Experiment: Human HepG2 cell viability assay in 384 well format
Type: toxicity, cell-based
Design: dose 125 nL, time 70.5 hour; cytotoxicity at 70.5 h: concentration not given beside the values
Details: HepG2 cells, read-out: Inhibition

Structure (SMILES)	cytotoxicity at 70.5 h
NC(=O)c1cc(-c2cccc(C(=O)O)c2)cs1	-15.4%
Cc1n[nH]c(C)c1CNC(=O)CSCc1ccccc1Cl	-0.888%
c1cc2c(cc1Cn1cc(C3CCOC3)nn1)CCCO2 (stereo not given)	-13.2%
CC(C)c1ccnc(N[C@H]2COC[C@@H]2N2CCCC2)n1	-15.2%
COc1cc(NC2CCS(=O)(=O)C2)ncn1 (stereo not given)	-17.8%
Cc1cc(N2CCC3(CCC(=O)N(CCO)C3)CC2)nc(N(C)C)n1	-3.81%
Cc1noc(CC2CCN(C(=O)C(c3ccccc3C)N(C)C)CC2)n1 (stereo not given)	-12.1%
CN(Cc1ccon1)C(=O)C1CC(=O)N(Cc2cccnc2)C1 (stereo not given)	-7.61%
COc1ccc(-c2cn(CCSc3ncn[nH]3)nn2)cn1	-9.67%
COCCC1(C(=O)O)CCCN(CC(=O)NCCc2ccccc2)C1 (stereo not given)	27.1%
COC(=O)CCCn1ccnc1C(C)c1ccccc1 (stereo not given)	-1.4%
CCC(Nc1nccc(C2CCCC2)n1)c1ccncc1 (stereo not given)	3.69%
Cc1noc(C)c1CN1C[C@@H](NS(=O)(=O)N(C)C)[C@H](C(C)C)C1	-8.39%
CN1CC(c2ccccc2)CC12CCN(C(=O)c1ccncc1)CC2 (stereo not given)	-2.51%
CN(C)C(=O)CCCNc1ncc2c(n1)CCN2c1ccccc1	-7.97%
O=C(Nc1cnc2n1CCCC2)C1CCCN1C1CCNCC1 (stereo not given)	-15%
CC(C)CCC1=NC2(CCN(C(=O)N3CCN(C)CC3)CC2)C(=O)N1	2.1%
O=C(C1CCCC1)N1CCC(C2CCN(Cc3ccc(Cl)cc3)C2)CC1 (stereo not given)	-2.34%
Cc1cc(C(=O)N2CCC(c3nccn3Cc3ccccn3)CC2)no1	-6.61%
Cn1ncc(-c2cc(-c3cccc(O)c3)nc(N)c2C#N)c1C1CC1	37.1%
N#Cc1cc2c(=O)n(CC(O)C(F)(F)F)ccc2[nH]c1=O (stereo not given)	3.74%
CCOc1ccc(CCCC(=O)N2CC[C@H](NC(C)=O)C2)cc1C	-12.4%
CC(NC(=O)C1CCN(C(C)C)CC1)c1nncn1C1CCCC1 (stereo not given)	-4.33%

Structure (SMILES)	cytotoxicity at 70.5 h
CN(C)C(=O)c1nc(CN2CC(Cc3ccccc3)CC2=O)no1 (stereo not given)	-2.6%
COc1cccc(-c2noc3c2CN(c2ncnc4c2CCC4)CC3)c1	-6.28%
CC(C)N(Cc1nccn1C)C(=O)c1cc(Cl)c[nH]c1=O	-6.81%
CCNc1nc(C)c(C(=O)N2CCC(C(O)Cc3ccccc3)CC2)s1 (stereo not given)	-14.6%
Cc1ccnc(N2C[C@@H]3CC[C@H](C2)N(CC2CCC2)C3=O)n1	9.42%
COc1ncccc1C(=O)N(C)Cc1nc(-c2ccccn2)no1	-8.07%
CCc1ccc2nc(-c3cnn(C)c3)cc(C(=O)N3CCOCC3)c2c1	-7.51%
CNc1nc(CN2C[C@@H](NC(C)=O)[C@H](c3ccc(C)o3)C2)cs1	-16.5%
C[C@@H]1CN(C(=O)CCN2CCCC2)CC[C@@]1(O)C1CCOCC1	-6.69%
Cc1nc[nH]c1CN(Cc1ccccc1)Cc1nccs1	-6.42%
CC(C)N1CCCC2(CCN(C(=O)CCCn3cccn3)C2)C1=O (stereo not given)	6.53%
CCOc1ccc(C(=O)N(CCOC)Cc2c(C)nn(CC)c2C)o1	-6.36%
COc1cc(CN2CCCC(Nc3cccc(F)c3)C2)cc(OC)c1O (stereo not given)	-5.97%
CN(Cc1cc2n(n1)CCNC2)Cc1n[nH]c2c1CCC2	-10.9%
CC(=O)C1(c2ccccc2)CCN(C(=O)CC2CNCCO2)CC1 (stereo not given)	-31.5%
Cc1ccc(-c2cc(CNC(=O)N3CCC(O)CC3)on2)cc1	0.512%
CC(C)n1ncc2cc(NC(=O)N3CCSCC3)cnc21	-3.2%
COc1ccc(C(O)CNC(=O)NCc2nc(C)cs2)cc1 (stereo not given)	-3.39%
Cc1ccc(C(O)CNC(=O)NCc2csc(C)n2)cc1 (stereo not given)	-2.4%
Cc1csc(N2CCN(C(=O)C(C(C)C)n3cncn3)CC2)n1 (stereo not given)	-1.51%
CCCC(=O)NC1CCN(c2ccccc2S(=O)(=O)CC)CC1	17.6%
CCS(=O)(=O)c1ccccc1N1CCC(NC(=O)C(C)C)CC1	5.03%
